In patent US10688194B2, “Cell penetrating peptides for intracellular delivery of molecules” (AADIGEN, LLC, priority 2012, dated 2020):
Read-outs that look alike come from different tables or passages of the source. Ends that are not written are not given here.

Legend:
[1] = tested on: HIV-1-LAI; type: cell-based; settings: for IC50: -LAI; for fold higher antiviral activity than AZT: associated to the carrier peptide VEPEP-3; for anti viral activity: scrambled peptides
Method: (§1) Adherent HS68 fibroblasts, HeLa, PC3, MCF-7, SCK3-Her2, PBMC cell lines (from American Type Culture Collection (ATCC)) were cultured in Dulbecco's Modified Eagle's Medium supplemented with 2 mM glutamine, 1% antibiotics (streptomycin 10,000 μg/ml, penicillin, 10,000 IU/ml) and 10% (w/v) foetal calf serum (FCS), at 37° C. in a humidified atmosphere containing 5% CO2. Stock solutions of VEPEP-3/peptide particles were prepared by complexing 1 μM peptide with VEPEP-3 peptides at a molar ratio of 1/20 for 30 min at 37° C. Lower concentrations of VEPEP-3-carrier/peptide (from 500 nM to […]) were obtained by serial dilution of the stock complexes in PBS, in order to preserve the same VEPEP-3-carrier/peptide ratio. 150,000 cells seeded in a 35 mm dish the day prior transfection, were grown to 60% confluence and overlaid with 200 μl of preformed complexes, incubated for 3-5 min, then 400 μl of DMEM were added. After 30 min. incubation at 37° C., 1 ml of fresh DMEM containing 16% foetal calf serum (FCS) was added in order to reach a final FCS concentration of 10%, without removing the overlay of VEPEP-3/peptide complexes. Cells were returned to the incubator for 24 hrs. For cdk4 and CDK2 derived peptides cell proliferation was monitored after 24 and 48 hrs. For peptide-targeting integrase, HIV proliferation was analyzed on activated PBMC cells after 3 and 5 days. Data reported are an average of 3 or 4 distinct experiments.
The anti-HIV activities of the peptides (PC4D, PC6D & PC4S) and VEPEP-3/peptides were assayed according to previously described method (Roisin et al, 2004). Phytohemagglutinin-P (PHA-P)-activated peripheral blood mononuclear cells (PBMC) treated by increasing concentrations of peptide (from 100 to 0.1 nM), one hour later, were infected with hundred 50% tissue culture infectious doses (TCID50) per 100,000 cells of the HIV-1-LAI or different resistant strains (Barre-Sinoussi et al, 1983). Viruses were amplified in vitro on PHA-P-activated PBMC. Viral stock was titrated using PHA-P-activated PBMC, and 50% TCID50 were calculated using Karber's formula (Karber 1931). Samples were maintained throughout the culture, and cell supernatants were collected at day 7 post-infection and stored at −20 C. Viral replication was measured by quantifying RT activity in cell culture supernatants. In parallel, cytotoxicity of the compounds was evaluated in uninfected PHA-P-activated PBMC by colorimetric 3-(4-5 dimethylthiazol-2-yl)2,5 diphenyl tetrazolium bromite (MTT) assay on day 7 (Mossmann 1983). Experiments were performed in triplicate and repeated with another blood donor. Data analyses were performed using SoftMax® Pro 4.6 microcomputer software: percent of inhibition of RT activity or of cell viability were plotted vs. concentration and fitted with quadratic curves; 50% effective doses (ED50) and cytotoxic doses (CD50) were calculated.

[2] = tested on: MCF7; test: Inhibition of cancer cell proliferation by delivered small molecule drugs; type: cell-based; settings: Homo sapiens
Method: (§6) Adherent HS68 fibroblasts, HeLa, PC3, MCF-7, SCK3-Her2, PBMC cell lines (from American Type Culture Collection (ATCC)) were cultured in Dulbecco's Modified Eagle's Medium supplemented with 2 mM glutamine, 1% antibiotics (streptomycin 10,000 μg/ml, penicillin, 10,000 IU/ml) and 10% (w/v) foetal calf serum (FCS), at 37° C. in a humidified atmosphere containing 5% CO2. […] 150,000 cells seeded in a 35 mm dish the day prior transfection, were grown to 60% confluence and overlaid with 200 μl of preformed complexes, incubated for 3-5 min, then 400 μl of DMEM were added. After 30 min. incubation at 37° C., 1 ml of fresh DMEM containing 16% foetal calf serum (FCS) was added in order to reach a final FCS concentration of 10%, without removing the overlay of VEPEP-3/peptide complexes. Cells were returned to the incubator for 24 hrs. […] Data reported are an average of 3 or 4 distinct experiments.

[3] = tested on: SKB3; test: as above; type: cell-based
Method: as §6

[4] = tested on: Peptide (C4 and C2); test: Fluorescence titration, VEPEP-3/cargo binding: peptide
Method: (§2) Fluorescence experiments were performed on a PTI spectrofluorimeter at 25° C. in a NaCl 154 mM buffer. Intrinsic Trp-fluorescence of VEPEP-3 was excited at 290 nm and emission spectrum was recorded between 310 and 400 nm, with a spectral band-pass of 2 and 8 nm for excitation and emission, respectively. FITC-fluorescence of labelled-peptide was excited at 492 nm and emission recorded between 500 and 580 nm. For VEPEP-3/peptide interaction, 0.5 μM of FITC-labelled peptide was titrated by increasing concentrations of VEPEP-3. All measurements were corrected for the dilution and curve fitting were performed by using Grafit software (Erithacus).
(§3) VEPEP-3 peptide form stable complexes with peptides and proteins. The binding of cargos to VEPEP-3 was monitored by fluorescence spectroscopy using the […] intrinsic Trp groups of VEPEP-3 (3 to 5 Trp-residues) and extrinsic fluorescently labelled cargoes (using Cy3, Cy5 or FITC). Curve fitting reveal that VEPEP-3 strongly binds the different cargoes with dissociation constant in the nanomolar range (examples with VEPEP-3a, VEPEP-3C, and VEPEP-3g and three different cargoes are reported in FIGS. 1A-1C, all the data are reported in Table 1).

[5] = tested on: PNA (15 mer-PNA); test: Fluorescence titration, VEPEP-3/cargo binding: PNA; settings: cargo: 15 mer-PNA
Method: as §2
(§4) VEPEP-3 peptides also form stable particles with small aromatic molecules including Daunomycin, Paclitaxel, doxorubicin, porphyrin and charged molecules including nucleotide, nucleoside and peptide-analog of nucleic acids or fluorescent dyes (FIGS. 1A-1C). The dissociation constant for small hydrophobic molecule ranges between 0.05 to 2 μM, depending on the nature of the dyes and of the peptides.

[6] = tested on: Cyclic peptide (PC4); test: Fluorescence titration, VEPEP-3/cargo binding: cyclic peptide; settings: cargo: Cyclic peptide (PC4)
Method: as §2, §3

[7] = tested on: protein (GFP & Nanobody); test: Fluorescence titration, VEPEP-3/cargo binding: protein; settings: cargo: protein (GFP & Nanobody)
Method: as §2, §3

[8] = tested on: HeLa and U2OS cells; test: Toxicity of VEPEP-3 particles, MTT assay and cyclophilin mRNA level; settings: complexed with short peptide and PNA at ratio 1/20
Method: Toxicity of VEPEP-3/peptide or VEPEP-3/protein complexes was investigated on Hela and HS-68 cell lines. 30,000 cells seeded in 24-well plated the day prior transfection, were incubated with increasing concentrations of peptide or protein complexed with VEPEP-3 at a 20/1 molar ratio ranging from 1 to 5 μM ([…]), for 30 min prior to addition of medium to reach a final 10% concentration of FCS. Cytotoxic response was measured 12 hr or 24 hr later by monitoring the housekeeping gene cyclophilin mRNA level (Quantigen, Panomic Inc.) and by colorimetric MTT assay (Sigma, Germany), respectively. For MTT assay, cell culture medium was removed and replaced with PBS containing 2.5 mg/ml of MTT for 4 hr. Results correspond to the average of 3 separate experiments.

[9] = Fluorescence titration, VEPEP-3/cargo binding: small hydrophobic molecule; settings: cargo: Doxorubicine; for Kd: read-out: Kd, SHM
Method: as §2, §4

[10] = tested on: Hela, MCF7, HEK-2, HS-68 and U2OS cells; test: Cell proliferation after VEPEP-3 mediated delivery of C2/C4, several lines; type: cell-based; settings: delivered by VEPEP-3
Method: as §1, with “Data reported are an average of 3 or 4 distinct experiments.” left out

[11] = tested on: Hela; type: cell-based
Method: as §1, with “Data reported are an average of 3 or 4 distinct experiments.” left out

[12] = tested on: HEK-2; type: cell-based
Method: as §1
(§5) A peptide C2 or C4 concentration of 200 nM was sufficient to block proliferation of Hela, MCF7, HEK-2, HS-68 and U2OS cells.

[13] = tested on: MCF7; type: cell-based
Method: as §1, §5

[14] = tested on: Hela; type: cell-based; remark: listed apart in the source
Method: as §1, §5

[15] = tested on: MDA_MB cells; type: cell-based
[16] = drug complexed with VEPEP-3a 1/20, read-out: VEPEP-3a 1/20 IC50
[17] = drug complexed with VEPEP-3g 1/20, read-out: VEPEP-3g 1/20 IC50
[18] = SKB3, drug complexed with VEPEP-3a 1/20, read-out: VEPEP-3a 1/20 IC50
[19] = SKB3, drug complexed with VEPEP-3g 1/20, read-out: VEPEP-3g 1/20 IC50
[20] = SKB3, free drug, read-out: Free drug IC50

Compound	Binding, peptide [4]	Kd [4] [nM]	Binding, PNA [5]	Binding, Cyclic peptide [6]	Binding, Protein [7]	Kd [7] [nM]	toxicity ([8]; levels up to 200 nM)	toxicity ([8]; maximum concentration of 1 μM)	Binding, SHM [9]	Kd [9] [nM]	further results
RWTEWEWW [PC4D, RWTEWEWW]											IC50 [1]: 0.12 ± 0.05 nM; fold higher antiviral activity than AZT [1]: 15 fold
KAETWAET (HELM PEPTIDE1{[ac].K.A.E.T.W.A.E.T.[SCCN[*:1]]}$$$$V2.0; SMILES CC(=O)N[C@@H](CCCCN)C(=O)N[C@@H](C)C(=O)N[C@@H](CCC(=O)O)C(=O)N[C@H](C(=O)N[C@@H](Cc1c[nH]c2ccccc12)C(=O)N[C@@H](C)C(=O)N[C@@H](CCC(=O)O)C(=O)N[C@H](C(=O)NCCS)[C@@H](C)O)[C@@H](C)O) [PC6S]											anti viral activity [1]: do not show any anti viral activity
CC(=O)O[C@H]1C(=O)[C@@]2(C)[C@H]([C@H](OC(=O)c3ccccc3)[C@]3(O)C[C@H](OC(=O)[C@H](O)[C@@H](NC(=O)c4ccccc4)c4ccccc4)C(C)=C1C3(C)C)[C@]1(OC(C)=O)CO[C@@H]1C[C@@H]2O [Taxol, taxol]											IC50 [2, 16]: 200 nM; IC50 [2, 17]: 700 nM; IC50 [3, 18]: 500 nM; IC50 [3, 19]: 800 nM; IC50 [3, 20]: 9000 nM
TWFTEWFT (HELM PEPTIDE1{[ac].T.W.F.T.E.W.F.T.[SCCN[*:1]]}$$$$V2.0; SMILES CC(=O)N[C@H](C(=O)N[C@@H](Cc1c[nH]c2ccccc12)C(=O)N[C@@H](Cc1ccccc1)C(=O)N[C@H](C(=O)N[C@@H](CCC(=O)O)C(=O)N[C@@H](Cc1c[nH]c2ccccc12)C(=O)N[C@@H](Cc1ccccc1)C(=O)N[C@H](C(=O)NCCS)[C@@H](C)O)[C@@H](C)O)[C@@H](C)O) [PC4S]											anti viral activity [1]: do not show any anti viral activity
X1RWWEKWWTRWPRKRK [VEPEP-3c]	yes	10 to 20	Yes	yes	Yes	200	No toxicity	mild toxicity	Yes	200	Kd [5]: 200 nM
X1LWWSRWWRSWFRLWFR [VEPEP-3g]	yes	10 to 20	Yes	yes	Yes	20 to 100	No toxicity	mild toxicity	Yes	20	
KKQVLAMEHLVT [C2, KKQVLAMEHLVT]											peptide concentration sufficient to block proliferation [10]: 200 nM; IC50 [11]: 36 ± 21 nM; IC50 [12]: 102 ± 24 nM; IC50 [13]: 67 ± 15 nM; IC50 [14]: 37 ± 15 nM; IC50 [15]: 46 ± 14 nM
X1LWWRRWWSRWWPRWRR [VEPEP-3f]	yes	10 to 20	Yes	yes	Yes	20 to 100	No toxicity	mild toxicity	Yes	20	
X1RWWRLWWRSWFRLWRR [VEPEP-3e]	yes	10 to 20	Yes	yes	Yes	20 to 100	No toxicity	mild toxicity	Yes	20	
KWETWWET [PC6D, KWETWWET]											IC50 [1]: 0.09 ± 0.05 nM; fold higher antiviral activity than AZT [1]: 15 fold
KKQVRMAHLVLT [C4, KKQVRMAHLVLT]											peptide concentration sufficient to block proliferation [10]: 200 nM; IC50 [11]: 36 ± 21 nM; IC50 [12]: 78 ± 10 nM; IC50 [13]: 58 ± 6 nM; IC50 [14]: 35 ± 12 nM; IC50 [15]: 46 ± 14 nM
COc1cccc2c1C(=O)c1c(O)c3c(c(O)c1C2=O)C[C@@](O)(C(=O)CO)C[C@@H]3O[C@H]1C[C@H](N)[C@H](O)[C@H](C)O1 [Doxo, doxorubicin]											IC50 [2, 16]: 200 nM; IC50 ([2]; drug complexed with VEPEP-3c 1/20, read-out: VEPEP-3c 1/20 IC50): 500 nM; IC50 [2, 17]: 200 nM; IC50 ([2]; free drug, read-out: Free drug IC50): 7000 nM; IC50 [3, 18]: 300 nM; IC50 ([3]; SKB3, drug complexed with VEPEP-3c 1/20, read-out: VEPEP-3c 1/20 IC50): 400 nM; IC50 [3, 19]: 200 nM; IC50 [3, 20]: 10000 nM; fold more efficient when complexed with VEPEP-3 ([3]; complexed versus free): 25 fold; IC50 ([3]; text of b118, cell line not stated, values match SKB3 line of Table 4, read-out: IC50, proliferation of cancer cells): 10000 nM
X1KWWERWWREWPRKRK [VEPEP-3b]	yes	10 to 20	Yes	yes	Yes	500	No toxicity	mild toxicity	Yes	500	Kd [5]: 200 nM
X1RWYEKWYTEFPRRRR [VEPEP-3d]	yes	10 to 20	Yes	yes	Yes	100	No toxicity	mild toxicity	Yes	100	Kd [5]: 100 nM
